Where two headings read alike, the source gives them in different places.
Key:
[1] = system: rhythmic bladder voiding contractions; assay: Volume-induced rhythmic bladder voiding contractions in anaesthetized rats; format: in vivo, rat; settings: Rattus norvegicus, intravenous; for ED (10 min disappearance of contractions): extrapolated dose inducing 10 min of disappearance of the contractions, anaesthetized rats, read-out: ED10 min; for ED50: extrapolated dose inducing a reduction of the number of contractions >30% in 50% of treated rats, read-out: ED50 (frequency)
[2] = system: urinary bladder; assay: Cystometric parameters (cystometrogram) in conscious rats; format: in vivo, rat; settings: for BVC after treatment / MP after treatment: mean ± S.E.; for change in vivo at 0.3 mg/kg / change in vivo at 1 mg/kg / change in vivo at 0.1 mg/kg: Rattus norvegicus, iv, 0.25 h, after vs before; for change in vivo at 0.3 mg/kg: i.v. 300 μg/kg; for change in vivo at 1 mg/kg: i.v. 1000 μg/kg; for change in vivo at 0.1 mg/kg: i.v. 100 μg/kg

Row | Compound | ED (10 min disappearance of contractions) [1] [mg/kg] | ED50 [1] [mg/kg] | BVC after treatment ([2]; 15 min after i.v. 300 μg/kg) [mL] | MP after treatment ([2]; 15 min after i.v. 300 μg/kg) [mmHg] | BVC after treatment ([2]; 15 min after i.v. 1000 μg/kg) [mL] | MP after treatment ([2]; 15 min after i.v. 1000 μg/kg) [mmHg] | change in vivo at 0.3 mg/kg ([2]; read-out: BVC % of change) [%] | change in vivo at 0.3 mg/kg ([2]; read-out: MP % of change) [%] | change in vivo at 1 mg/kg ([2]; read-out: BVC % of change) [%] | change in vivo at 1 mg/kg ([2]; read-out: MP % of change) [%] | i.v. dose at which a significant increase in BVC was observed ([2]; conscious rats, i.v.) [mg/kg] | effect on MP (in words) ([2]; conscious rats, i.v.) | BVC after treatment ([2]; 15 min after i.v. 100 μg/kg) [mL] | MP after treatment ([2]; 15 min after i.v. 100 μg/kg) [mmHg] | change in vivo at 0.1 mg/kg ([2]; read-out: BVC % of change) [%] | change in vivo at 0.1 mg/kg ([2]; read-out: MP % of change) [%]
1 | COc1ccccc1N1CCN(CCN(C(=O)C2CCCCC2)c2ccccc2)CC1 [Compound A, 1-(N-phenyl-N-cyclohexylcarbonyl-2-aminoethyl)-4-(2-methoxyphenyl)piperazine, reference compound] | 0.65 | 0.033 | 0.87 ± 0.05 | 85.6 ± 11.3 | 0.97 ± 0.11 | 84.1 ± 5.2 | 7.4 | -5.5 | 24.4 | -6.8 | 1.0 | – | – | – | – | –
2 | COc1ccccc1N1CCN(CCN(C(=O)C2CCCCC2)c2ccccc2[N+](=O)[O-])CC1 [Example 2, 1-[N-(2-nitrophenyl)-N-cyclohexylcarbonyl-2-aminoethyl]-4-(2-methoxyphenyl) piperazine] | 0.06 | 0.009 | 0.87 ± 0.10 | 80.4 ± 6.5 | 0.75 ± 0.10 | 99.6 ± 11.2 | 22.5 | -15.7 | 21 | -8.6 | 0.3 | slight, albeit significant, decrease in MP | – | – | – | –
3 | O=C(C1CCCCC1)N(CCN1CCN(c2cccc3[nH]ccc23)CC1)c1ccccc1[N+](=O)[O-] [Example 13, 1-[N-(2-nitrophenyl)-N-cyclohexylcarbonyl-2-aminoethyl]-4-(4-indolyl)piperazine] | 0.266 | 0.029 | 0.95 ± 0.12 | 65.7 ± 13.8 | – | – | 30.2 | -10.6 | – | – | – | – | 1.07 ± 0.14 | 75.6 ± 13.7 | 13.4 | -12.5
4 | COC(=O)c1ccccc1N(CCN1CCN(c2ccccc2OC)CC1)C(=O)C1CCCCC1 [Example 18, 1-[N-(2-methoxycarbonylphenyl)-N-cyclohexylcarbonyl-2-aminoethyl]-4-(2-methoxyphenyl)piperazine] | 0.101 | 0.017 | – | – | 0.89 ± 0.16 | 79.3 ± 17.0 | – | – | 40.3 | -13.5 | – | – | 0.80 ± 0.09 | 48.5 ± 4.9 | 33.3 | -34.3
5 | COc1ccccc1N1CCN(CCN(C(=O)C2CCCCC2)c2ccccc2OC)CC1 [Example 23, 1-[N-(2-methoxyphenyl)-N-cyclohexylcarbonyl-2-aminoethyl]-4-(2-methoxyphenyl)piperazine] | 0.093 | 0.018 | 0.77 ± 0.03 | 86.4 ± 10.0 | 0.89 ± 0.12 | 61.9 ± 8.5 | 54.3 | -7.6 | 34.5 | -17.1 | – | – | – | – | – | –
